Assay results taken from US7966056B2, “Magnetic resonance imaging method and compounds for use in the method” (GE Healthcare AS, priority 2002, dated 2011).

Columns and labels:
mice = conditions: intravenous injection in mice; cited from earlier work
anaesthetised dogs = assay: cardiovascular effects in anaesthetised dogs with and without dobutamine stress (Example 7); format: in vivo; conditions: dobutamine alone, 5-20 μg/kg/min infusion
Method: The cardiovascular effects of MnHPTA with various amounts of Ca^2+ (0, 0.5 and 1 mol Ca^2+ per mol Mn^2+) were investigated in the presence and absence of dobutamine induced pharmacological stress in anaesthetised dogs.
Anaesthesia was induced with pentobarbital (12-25 mg/kg i.v.) and fentanyl (1.5-2.5 μg/kg i.v.), followed by a continuous i.v. infusion of fentanyl (20 μg/kg/h and pentobarbital (10 mg/kg/h). Artificial ventilation was carried out by room air through a tracheal tube, aimed at achieving normal physiological blood gas values. A catheter was introduced through the right femoral artery for measurement of SAP. A microtip pressure transducer catheter (Millar) was placed into the left ventricle through the carotid artery for measurements of LVdP/dt. A Swan-Ganz catheter was introduced through the right femoral vein for measuring PAP (pulmonary arterial pressure). A 3-lead ECG was continuously-monitored. An ultrasonic flow probe was placed around the left femoral artery for flow measurement. Venflon cannulas were introduced into the left and right jugular veins for contrast agent injections and dobutamine infusions, respectively. […]
Systolic, diastolic and mean systemic arterial pressure (SYS, DIA MEAN), LVdP/dt, femoral arterial flow, mean PAP (pulmonary arterial pressure), HR (heart rate) and ECG were continuously monitored and stored by a computer system.

[1] = maximum solubility in water; format: physicochemical
From the text: In the method according to the invention the contrast agent is preferably administered in a bolus injection although slow injection or infusion of the contrast agent is also suitable. For Mn^2+ complexes with low formation constants, e.g. in the area 10^3 to 10^8 there might be a risk that the release of Mn^2+ from the complex may still be sufficiently rapid to induce cardiotoxic reactions in the body. To avoid such toxic reactions, the contrast agent comprising such complexes could be provided in solutions comprising low concentrations of such complexes. If it is preferred to provide the contrast agent in dry form, e.g. as a lyophilized powder, for on site preparation of the solution for injection, complexes with properties that avoid the preparation of high concentration solutions provide an additional advantage. For example the sodium salt of MnTPP, Na3MP3O10, has a limited solubility, thus prohibiting injections of highly concentrated solutions of manganese. […] This injection volume additionally prohibits rapid bolus injections of sodium salts of MnTPP.

Method for myocardium: In an anaesthesed pig, heart rate and systolic/diastolic blood pressure were monitored.
Dobutamine was infused at a dose of 10 μg/kg body weight/min and increased by 10 μg/kg/min every second minute until a PRP (pressure-rate product) of a factor 2.5 was achieved.
10 μmol/kg body weight of MnTPP was injected in a bolus during 4 seconds.
The pig was subjected to imaging at 1.5 T in a clinical scanner. Short axis view images of the myocardium were acquired 45 minutes post injection.

Compound: [Ba+2].[Cl-].[Cl-] [BaCl2]
- LD50 (mice): 19.2 mg/kg

Compound: [Ca+2].[Cl-].[Cl-] [CaCl2]
- LD50 (mice): 42.2 mg/kg

Compound: CC(CCc1ccc(O)cc1)NCCc1ccc(O)c(O)c1 (stereo not drawn) [Dobutamine, dobutamine]
- increase in dP/dt max (anaesthetised dogs): 4 times

Compound: O=P([O-])([O-])OP(=O)([O-])OP(=O)([O-])[O-].[Mn+2].[Na+].[Na+].[Na+] [sodium salt of MnTPP]
- maximum solubility in water [1]: 23 mM

Compound: manganese triphosphate [MnTPP]
- clinical signs represented by changes in physiological parameters (myocardium; 10 μmol/kg body weight bolus during 4 seconds, dobutamine stress, anaesthetised pig): No clinical signs represented by changes in physiological parameters were observed
- short axis view MR images of the myocardium (myocardium; 10 μmol/kg, 1.5 T, 45 minutes post injection, pig): visualised an underperfused area
